Assay: refractive index (Na D-line) (dimensionless); xn = mol fraction of the nth substance listed
Conditions: 101 kPa, Liquid

CCCCCCn1cc[n+](C)c1.F[P-](F)(F)(F)(F)F [1-hexyl-3-methylimidazolium hexafluorophosphate] + CCCCOC(C)=O
refractive index, Standard Abbe refractometry
Conditions	293.15 K	298.15 K	303.15 K	308.15 K	313.15 K	318.15 K	323.15 K
x1 = 0.0956	1.40012	1.39835	1.39654	1.39469	1.39293	1.39102	1.38925
x1 = 0.1919	1.40555	1.40397	1.40209	1.40028	1.39856	1.39677	1.39495
x1 = 0.273	1.40899	1.40746	1.40564	1.40392	1.40223	1.40049	1.39879
x1 = 0.3698	1.41222	1.41064	1.40899	1.40735	1.40568	1.40401	1.40239
x1 = 0.4639	1.41432	1.41299	1.41138	1.40987	1.40837	1.40682	1.40529
x1 = 0.5701	1.41616	1.41482	1.41349	1.41215	1.41074	1.40945	1.40808
x1 = 0.6787	1.41768	1.41633	1.41519	1.41385	1.41265	1.41139	1.41024
x1 = 0.7746	1.41841	1.41727	1.41623	1.41512	1.41392	1.41269	1.41151
x1 = 0.8707	1.41937	1.41819	1.41713	1.41606	1.41477	1.41373	1.41268
x1 = 0.9354	1.41972	1.41876	1.41773	1.41651	1.41522	1.41386	1.41261
x1 = 1	1.42064	1.41935	1.41806	1.41676	1.41547	1.41417	1.41288

CCCCCCCC[n+]1ccn(C)c1.F[P-](F)(F)(F)(F)F [1-octyl-3-methylimidazolium hexafluorophosphate] + CCOC(C)=O
refractive index
Conditions	x1 = 0.1056	x1 = 0.2064	x1 = 0.308	x1 = 0.4094	x1 = 0.4991	x1 = 0.5916	x1 = 0.694	x1 = 0.8121	x1 = 0.8895	x1 = 1
293.15 K	1.38873	1.40004	1.40816	1.41301	1.41629	1.41842	1.4208	1.42285	1.42447	1.42649
298.15 K	1.38754	1.39899	1.40705	1.41196	1.41523	1.41771	1.41971	1.42189	1.42354	1.42512
303.15 K	1.38545	1.39759	1.40552	1.41088	1.41385	1.41655	1.41878	1.42063	1.42188	1.42376
308.15 K	1.38383	1.39634	1.40439	1.40952	1.41311	1.41557	1.41792	1.42016	1.42072	1.4224
313.15 K	1.38267	1.39498	1.40318	1.40842	1.41186	1.41447	1.41699	1.41906	1.41956	1.42103
318.15 K	1.38145	1.39381	1.40208	1.40767	1.41108	1.41348	1.41612	1.41805	1.41852	1.41967
323.15 K	1.38027	1.39276	1.40106	1.40658	1.41002	1.41266	1.41504	1.41746	1.41744	1.41831

CCCCCCn1cc[n+](C)c1.F[P-](F)(F)(F)(F)F [1-hexyl-3-methylimidazolium hexafluorophosphate] + CCOC(C)=O
refractive index
Conditions	293.15 K	298.15 K	303.15 K	308.15 K	313.15 K	318.15 K	323.15 K
x1 = 0.09053	1.38737	1.38598	1.38515	1.38415	1.38344	1.38227	1.38202
x1 = 0.1751	1.39825	1.39706	1.39611	1.39519	1.39414	1.39389	1.39323
x1 = 0.2748	1.40432	1.40351	1.402	1.40105	1.40023	1.39983	1.3989
x1 = 0.3638	1.40809	1.40694	1.40594	1.40487	1.40397	1.40319	1.40308
x1 = 0.4747	1.41069	1.40989	1.40899	1.40784	1.40699	1.40607	1.40548
x1 = 0.5959	1.41247	1.41194	1.41159	1.41107	1.40998	1.4091	1.4082
x1 = 0.6988	1.41456	1.41432	1.41357	1.41273	1.41182	1.41087	1.40995
x1 = 0.7782	1.41641	1.41609	1.41526	1.41451	1.41389	1.41215	1.41181
x1 = 0.8784	1.41817	1.41813	1.41735	1.41622	1.41498	1.41315	1.41252
x1 = 0.9562	1.42009	1.41886	1.41756	1.41629	1.41507	1.41377	1.41258
x1 = 1	1.42064	1.41935	1.41806	1.41676	1.41547	1.41417	1.41288

CCCCCCCC[n+]1ccn(C)c1.F[P-](F)(F)(F)(F)F [1-octyl-3-methylimidazolium hexafluorophosphate] + CCCCOC(C)=O
refractive index
Conditions	x1 = 0.1078	x1 = 0.2016	x1 = 0.3056	x1 = 0.3855	x1 = 0.4815	x1 = 0.5918	x1 = 0.6857	x1 = 0.7784	x1 = 0.8946	x1 = 1
293.15 K	1.40113	1.40658	1.41215	1.41536	1.41829	1.42036	1.42188	1.42339	1.42502	1.42649
298.15 K	1.39916	1.40486	1.41053	1.41402	1.41692	1.41924	1.42067	1.42219	1.42373	1.42512
303.15 K	1.39682	1.40307	1.40886	1.41241	1.41546	1.41801	1.41931	1.42073	1.42217	1.42376
308.15 K	1.39502	1.40132	1.40721	1.41099	1.41402	1.41668	1.41801	1.41955	1.42089	1.4224
313.15 K	1.39308	1.39963	1.40556	1.40944	1.41256	1.41529	1.41687	1.41835	1.41966	1.42103
318.15 K	1.39114	1.39793	1.40399	1.40796	1.41132	1.41404	1.41575	1.41726	1.41848	1.41967
323.15 K	1.38914	1.39622	1.40245	1.40652	1.41001	1.41272	1.41456	1.41606	1.41731	1.41831

— the NIST ThermoML archive (doi:10.1016/j.jct.2014.01.012)
